Where two headings read alike, the source gives them in different places.
Target: T1, SFRP-1 (Homo sapiens, UniProt Q8N474)
T1 sequence (Q8N474 32-314): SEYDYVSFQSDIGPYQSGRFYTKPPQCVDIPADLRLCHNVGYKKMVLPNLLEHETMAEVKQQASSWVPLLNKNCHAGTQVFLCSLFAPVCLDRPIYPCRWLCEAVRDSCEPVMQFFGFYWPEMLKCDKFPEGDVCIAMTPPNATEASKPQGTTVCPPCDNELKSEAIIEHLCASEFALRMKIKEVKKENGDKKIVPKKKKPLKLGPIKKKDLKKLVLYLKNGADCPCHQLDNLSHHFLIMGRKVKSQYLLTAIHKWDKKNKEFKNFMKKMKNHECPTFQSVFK
Assay: Cell-based assay for in vitro measurement of SFRP-1/SARP2 antagonist activity (U2OS cells co-transfected with 16x TCF-tk-Luciferase reporter, Wnt and hSFRP-1);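 further: U2OS cells co-transfected with a TCF-tk luciferase reporter, a Wnt vector, hSFRP-1 or empty vector and CMV-βgal, luciferase luminescence read in cell lysates alongside βgal activity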
Conditions: U2OS; for fold induction at 10 µM: read-out: Fold Induction with SFRP-1, U2OS cells, single dose 10 μM, luciferase reporter, fold induction over SFRP-1 control

[1] = read-out: Fold Induction with SFRP-1, Conc 15 μM, with SFRP-1, fold induction over SFRP-1 control, single dose
[2] = read-out: Fold Induction without SFRP-1, Conc 15 μM, without SFRP-1, single dose
[3] = read-out: Fold Induction with SFRP-1, Conc 15 μM, single dose, luciferase reporter, fold induction over SFRP-1 control, cells with SFRP-1
[4] = read-out: Fold Induction without SFRP-1, Conc 15 μM, single dose, luciferase reporter, cells without SFRP-1 (specificity control)
[5] = read-out: Fold Induction with SFRP-1, Conc 30 μM, with SFRP-1, fold induction over SFRP-1 control, single dose
[6] = read-out: Fold Induction without SFRP-1, Conc 30 μM, without SFRP-1, single dose

Structure (SMILES)	fold induction at 15 µM [1]	fold induction at 15 µM [2]	other results
Cc1ccc(S(=O)(=O)c2ccc(F)cc2)cc1S(=O)(=O)NCCC(N)=O [Example 159, N^3-({5-[(4-fluorophenyl)sulfonyl]-2-methylphenyl}sulfonyl)-beta-alaninamide]	1.8	0.9	–
Cc1ccc(S(=O)(=O)c2ccccc2)cc1S(=O)(=O)NCCC1CCCN1C (centres unmarked) [Example 207, 2-methyl-N-[2-(1-methylpyrrolidin-2-yl)ethyl]-5-(phenylsulfonyl)benzenesulfonamide]	2.3	1.1	–
CCc1ccc(S(=O)(=O)c2ccccc2)cc1S(=O)(=O)NCCCN1CCCC1 [Example 232, 2-ethyl-5-(phenylsulfonyl)-N-(3-pyrrolidin-1-ylpropyl)benzenesulfonamide]	4.2	1.6	–
O=S(=O)(NC1CCN(C(=S)c2ccc(C(F)(F)F)cc2)CC1)c1cc(S(=O)(=O)c2ccccc2)ccc1C(F)(F)F [Example 724, 5-(phenylsulfonyl)-2-(trifluoromethyl)-N-(1-{[4-(trifluoromethyl)phenyl]carbonothioyl}piperidin-4-yl)benzenesulfonamide]	–	–	fold induction at 10 µM: 1.7
Cc1ccc(S(=O)(=O)c2ccccc2)cc1S(=O)(=O)NC[C@@H](C)c1ccccc1 [Example 262, 2-methyl-N-[(2S)-2-phenylpropyl]-5-(phenylsulfonyl)benzenesulfonamide]	1.6	1.1	–
CCc1ccc(S(=O)(=O)c2ccccc2)cc1S(=O)(=O)N(C)CCc1ccccc1 [Example 284, 2-ethyl-N-methyl-N-(2-phenylethyl)-5-(phenylsulfonyl)benzenesulfonamide]	1.1	1.2	–
Cc1ccc(S(=O)(=O)c2ccc(Cl)cc2)cc1S(=O)(=O)NCCc1ccccn1 [Example 291, 5-[(4-chlorophenyl)sulfonyl]-2-methyl-N-(2-pyridin-2-ylethyl)benzenesulfonamide]	1.7	0.9	–
COc1cccc(CCNS(=O)(=O)c2cccc(S(=O)(=O)c3ccccc3)c2)c1 [Example 62, N-[2-(3-methoxyphenyl)ethyl]-3-(phenylsulfonyl)benzenesulfonamide]	1.2	1.1	–
Cc1ccc(S(=O)(=O)c2ccc(F)cc2)cc1S(=O)(=O)NC1CCNCC1 [Example 576, 5-[(4-fluorophenyl)sulfonyl]-2-methyl-N-piperidin-4-ylbenzenesulfonamide]	–	–	fold induction at 15 µM [3]: 3; fold induction at 15 µM [4]: 1.2
Cc1ccc(S(=O)(=O)c2ccccc2)cc1S(=O)(=O)NCCc1c[nH]c2ccccc12 [Example 294, N-[2-(1H-indol-3-yl)ethyl]-2-methyl-5-(phenylsulfonyl)benzenesulfonamide]	2.3	1.5	–
Cc1ccc(S(=O)(=O)c2ccccc2)cc1S(=O)(=O)NCCC1CCOCC1 [Example 299, 2-methyl-5-(phenylsulfonyl)-N-(2-tetrahydro-2H-pyran-4-ylethyl)benzenesulfonamide]	3.1	1.1	–
O=S(=O)(c1ccccc1)c1ccc(Cl)c(S(=O)(=O)N2CCC(N3CCCC3)CC2)c1 [Example 635, 1-{[2-chloro-5-(phenylsulfonyl)phenyl]sulfonyl}-4-pyrrolidin-1-ylpiperidine]	–	–	fold induction at 15 µM [3]: 2; fold induction at 15 µM [4]: 1.7
Cc1ccc(S(=O)(=O)c2ccc(F)cc2)cc1S(=O)(=O)NCCC1CCCN1C (centres unmarked) [Example 164, 5-[(4-fluorophenyl)sulfonyl]-2-methyl-N-[2-(1-methylpyrrolidin-2-yl)ethyl]benzenesulfonamide]	1.9	1.1	–
CN1CCN(CCCNS(=O)(=O)c2cccc(S(=O)(=O)c3ccccc3)c2)CC1 [Example 201, N-[3-(4-methylpiperazin-1-yl)propyl]-3-(phenylsulfonyl)benzenesulfonamide]	–	–	fold induction at 30 µM [5]: 1.1; fold induction at 30 µM [6]: 1.2
COC(=O)c1ccc(CNS(=O)(=O)c2cc(S(=O)(=O)c3ccccc3)ccc2C(C)C)cc1 [Example 951, methyl 4-[({[2-isopropyl-5-(phenylsulfonyl)phenyl]sulfonyl}amino)methyl]benzoate]	–	–	fold induction at 10 µM: 1.8
CCN(CC)CCNS(=O)(=O)c1cc(S(=O)(=O)c2ccc(F)cc2)ccc1C [Example 171, N-[2-(diethylamino)ethyl]-5-[(4-fluorophenyl)sulfonyl]-2-methylbenzenesulfonamide]	2.2	1.2	–
Cc1ccc(S(=O)(=O)c2ccc(F)cc2)cc1S(=O)(=O)NCC(O)c1ccccn1 (centres unmarked) [Example 756, 5-[(4-fluorophenyl)sulfonyl]-N-(2-hydroxy-2-pyridin-2-ylethyl)-2-methylbenzenesulfonamide]	–	–	fold induction at 10 µM: 1.3
Cc1ccc(S(=O)(=O)c2ccccc2)cc1S(=O)(=O)N(C)CCc1ccccc1 [Example 278, N,2-dimethyl-N-(2-phenylethyl)-5-(phenylsulfonyl)benzenesulfonamide]	1	0.9	–
COC(=O)CCNS(=O)(=O)c1cccc(S(=O)(=O)c2ccccc2)c1 [Example 182, methyl N-{[3-(phenylsulfonyl)phenyl]sulfonyl}-beta-alaninate]	–	–	fold induction at 30 µM [5]: 1; fold induction at 30 µM [6]: 1
CCOC(=O)C1CCCN(S(=O)(=O)c2cc(S(=O)(=O)c3ccccc3)ccc2Cl)C1 (centres unmarked) [Example 645, ethyl 1-{[2-chloro-5-(phenylsulfonyl)phenyl]sulfonyl}piperidine-3-carboxylate]	–	–	fold induction at 15 µM [3]: 1; fold induction at 15 µM [4]: 1.1

Continued, in another order:

fold induction at 15 µM [1]	fold induction at 15 µM [2]	Structure (SMILES)	other results
1.9	0.7	Cc1ccc(S(=O)(=O)c2ccc(N[C@@H]3C[C@H]4CC[C@@H]3C4)cc2)cc1S(=O)(=O)NCCCn1ccnc1 [Example 369, 5-({4-[(1R,2R,4S)-bicyclo[2.2.1]hept-2-ylamino]phenyl}sulfonyl)-N-[3-(1H-imidazol-1-yl)propyl]-2-methylbenzenesulfonamide]	–
1.7	1	Cc1ccc(S(=O)(=O)c2ccc(NC3CCCCC3)cc2)cc1S(=O)(=O)NCCCn1ccnc1 [Example 352, 5-{[4-(cyclohexylamino)phenyl]sulfonyl}-N-[3-(1H-imidazol-1-yl)propyl]-2-methylbenzenesulfonamide]	–
3	1.1	Cc1ccc(S(=O)(=O)c2ccccc2)cc1S(=O)(=O)NC1CCNCC1 [Example 447, 2-methyl-5-(phenylsulfonyl)-N-piperidin-4-ylbenzenesulfonamide]	–
1.6	1	Cc1ccc(S(=O)(=O)c2cc(Cl)ccc2Cl)cc1S(=O)(=O)NCCCn1ccnc1 [Example 345, 5-[(2,5-dichlorophenyl)sulfonyl]-N-[3-(1H-imidazol-1-yl)propyl]-2-methylbenzenesulfonamide]	–
0.9	0.9	Cc1ccc(S(=O)(=O)c2ccccc2)c(C)c1S(=O)(=O)NCCc1ccccn1 [Example 472, 2,6-dimethyl-3-(phenylsulfonyl)-N-(2-pyridin-2-ylethyl)benzenesulfonamide]	–

From US20060276464A1, “Diarylsulfone sulfonamides and use thereof” (Wyeth, priority 2005, published 2006)
